Legend:
[1] = target: VMAT2 (Rattus norvegicus (Rat), UniProt Q01827); assay: [3H]Dopamine ([3H]DA) uptake assay, vesicular preparation; assay type: biochemical; settings: [3H]DA uptake, rat; read-out: VMAT2 (rat) Inhibition: Mean Ki ± Standard Deviation
[2] = target: hERG channel (Homo sapiens (Human), UniProt Q12809); assay: [3H]Dofetilide binding assay, HEK-293 cell membrane preparation; settings: [3H]dofetilide, HEK-293 cell membranes; read-out: hERG Binding: Mean Ki ± Standard Deviation
Procedure: [^3H]Dofetilide binding assays were conducted using commercially available HEK-293 cell membranes which stably express the hERG channel. Membranes were suspended in assay buffer (50 mM Tris, 10 mM KCl, 1 mM MgCl2, pH 7.4) prior to the experiment. […] Aliquots of the HEK-293 cell membrane suspension which contained 5 μg membrane protein were added to tubes containing assay buffer, 5 nM [^3H]dofetilide and a range of concentrations of analog (10 nM-100 μM). Nonspecific binding was determined in the presence of amitriptyline (1 mM). Samples were incubated for 1 hr. at 24° C., followed by rapid filtration. […] The affinity for the [^3H]dofetilide binding site on the hERG channel expressed in the HEK-293 cellular membrane was determined from the analog concentration response curves.

[3] = Microsomal stability assay, rat liver microsomes; settings: for CLint scaled at 0.08 µM / half-life at 0.08 µM: female, Sprague-Dawley, rat, liver microsomes; for CLint scaled at 0.08 µM: pH 7.4, Microsomal stability assays: Clearance; for half-life at 0.08 µM: pH 7.4, Microsomal stability assays: Half-life
Procedure: Each plate holds triplicate samples of two controls (0.4 mM) and up to 14 compounds (0.08 mM) in rat and human liver microsomes. Aliquots of each well of the plate (175 μl of each well) were transferred from the master plate into 5 assay plates. For 0-hr time point, pre-cooled (4° C.) internal standard (437.5 μL, 2 μM caffeine in methanol) was added to the first plate before the reaction starts. NADPH regenerating system solution A (6.05 ml, Fisher Scientific, #NC9255727) was combined with NADPH regenerating system solution B (1.21 ml, Fisher Scientific, #NC9016235) in potassium phosphate buffer (15.8 ml, 0.1 M, pH 7.4, 37° C.). The resulting NADPH solution (43.8 μl) was added to each well of all the 96-well assay plates and mixed with pipette briefly making the final protein and compound concentrations respectively: 0.5 mg/ml, 0.08 μM (0.4 μM for controls). Plates were sealed, and all plates except the 0-hr plate were incubated at 37° C., shaken at a speed of 60 rpm. A single assay plate was tested at each time point: 0.5 hr, 1 hr, 2 hr, and 4 hr. At each time point, 437.5 μL of pre-cooled internal standard was added each well of the plate to quench the reaction. […] 120 μl supernatant was transferred to a 96-well plate, centrifuged again and analyzed by UPLC-MS (Waters Inc., Milford, MA). The compounds and internal standard were detected by selected ion recording (SIR).
The amount of material was measured as a ratio of peak area to the internal standard and graphed. Using the slope from the initial linear portion of this curve, the degradation rate constant is calculated using equation [1].

hERG channel, sequence (Q12809 whole entry): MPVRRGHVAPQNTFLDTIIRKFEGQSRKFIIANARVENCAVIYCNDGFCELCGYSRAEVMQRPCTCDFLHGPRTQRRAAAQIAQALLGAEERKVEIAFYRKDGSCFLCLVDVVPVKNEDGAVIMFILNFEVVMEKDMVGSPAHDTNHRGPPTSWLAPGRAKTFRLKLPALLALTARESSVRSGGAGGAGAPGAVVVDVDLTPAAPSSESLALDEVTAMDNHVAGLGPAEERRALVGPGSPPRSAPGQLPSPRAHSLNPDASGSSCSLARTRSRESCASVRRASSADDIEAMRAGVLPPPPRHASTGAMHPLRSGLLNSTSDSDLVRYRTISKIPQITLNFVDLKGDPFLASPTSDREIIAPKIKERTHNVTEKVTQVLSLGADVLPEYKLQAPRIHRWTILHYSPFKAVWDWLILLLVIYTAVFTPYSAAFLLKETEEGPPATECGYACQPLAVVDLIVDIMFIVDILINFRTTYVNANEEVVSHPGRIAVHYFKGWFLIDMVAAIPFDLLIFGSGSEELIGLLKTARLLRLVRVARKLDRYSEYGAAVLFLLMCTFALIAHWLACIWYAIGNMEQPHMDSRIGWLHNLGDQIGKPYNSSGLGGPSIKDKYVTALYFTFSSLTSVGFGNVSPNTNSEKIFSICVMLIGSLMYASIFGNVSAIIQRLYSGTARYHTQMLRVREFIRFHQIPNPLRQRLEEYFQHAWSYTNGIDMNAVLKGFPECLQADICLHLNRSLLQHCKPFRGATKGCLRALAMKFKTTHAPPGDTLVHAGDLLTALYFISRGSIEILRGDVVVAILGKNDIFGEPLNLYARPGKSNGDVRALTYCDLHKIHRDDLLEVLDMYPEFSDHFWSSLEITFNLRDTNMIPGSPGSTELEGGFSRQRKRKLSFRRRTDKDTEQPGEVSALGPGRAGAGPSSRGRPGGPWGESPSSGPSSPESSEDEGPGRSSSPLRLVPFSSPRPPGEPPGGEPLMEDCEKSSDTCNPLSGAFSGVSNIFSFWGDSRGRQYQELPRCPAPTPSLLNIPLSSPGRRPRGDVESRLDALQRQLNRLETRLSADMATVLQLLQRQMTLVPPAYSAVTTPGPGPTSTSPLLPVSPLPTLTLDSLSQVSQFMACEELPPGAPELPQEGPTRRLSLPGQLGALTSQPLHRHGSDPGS

SMILES	Ki [1]	Ki [2]	CLint scaled at 0.08 µM [3]	half-life at 0.08 µM [3]	Microsomal stability assays: Half-life [3]	Microsomal stability assays: Clearance [3]
CC(Cc1ccc(F)cc1)NCCCc1ccc2[nH]ccc2c1 (centres unmarked) [Compound 55]	0.0274 ± 0.00893 µM	1.55 ± 0.63 µM	> 24 L/h/kg	< 6 min		
CC(Cc1ccc(F)c(F)c1)NCCCc1ccc(N)cc1 (centres unmarked) [Compound 60]	0.0483 ± 0.0164 µM	3.14 ± 1.55 µM	1.84 L/h/kg	60 min		
CC(Cc1ccc(Cl)cc1)NCCCc1ccc(N)cc1 (centres unmarked) [Compound 62]	0.0316 ± 0.00466 µM	2.38 ± 1.12 µM	4.98 L/h/kg	36 min		
CC(=O)Nc1ccc(CCCNC(C)Cc2ccc(F)cc2)cc1 (centres unmarked) [Compound 66]	0.0325 ± 0.00352 µM	10.1 ± 3.35 µM	1.84 L/h/kg	90 min		
FCC(Cc1ccc(Br)cc1)NCCCc1ccc(F)cc1 (centres unmarked) [Compound 85]	0.0357 ± 0.00732 µM	1.13 ± 0.711 µM	20.1 L/h/kg		6 min	
CC(Cc1ccc(NC=O)cc1)NCCCc1ccc(F)cc1 (centres unmarked) [Compound 87]	0.0127 ± 0.00285 µM	0.738 ± 0.244 µM	0.798 L/h/kg	210 min		
CC(Cc1ccc(NC=O)cc1)NCCCc1ccc(F)cc1 (centres unmarked) [Compound 90]	0.0127 ± 0.00285 µM	0.738 ± 0.244 µM			114 min	1.49 L/h/kg
CC(Cc1ccc(F)cc1)NCCCc1c[nH]c2ccccc12 (centres unmarked) [Compound 91]	0.0365 ± 0.00556 µM	2.2 ± 0.124 µM	> 24 L/h/kg	< 6 min		
CC(Cc1ccc(F)cc1)NCCCc1ccc(N)cc1 (centres unmarked) [Compound 94]	0.0846 ± 0.0291 µM	3.98 ± 3.41 µM	7.14 L/h/kg	24 min		
CC(Cc1ccc(F)c(F)c1)NCCCc1ccncc1 (centres unmarked) [Compound 96]	0.0785 ± 0.0158 µM	4.07 ± 0.734 µM	5.81 L/h/kg	30 min		
FCC(Cc1ccccc1)NCCCc1ccccc1 (centres unmarked) [Compound 98]	0.0278 ± 0.00529 µM	17.1 ± 12.1 µM	> 24 L/h/kg	< 6 min		
FCC(Cc1ccccc1)NCCCc1ccc(F)cc1 (centres unmarked) [Compound 101]	0.0147 ± 0.00928 µM	4.8 ± 0.94 µM	15.2 L/h/kg	12 min		
CC(Cc1ccc(N)cc1)NCCCc1ccc(F)cc1 (centres unmarked) [Compound 110]	0.0192 ± 0.00443 µM	2.59 ± 0.792 µM	< 0.6 L/h/kg	> 240 min		
CC(Cc1ccc(N)cc1)NCCCc1ccc(F)cc1 (centres unmarked) [Compound 111]	0.0167 ± 0.00334 µM	2.5 ± 0.435 µM			144 min	1.17 L/h/kg
CC(Cc1ccc([N+](=O)[O-])cc1)NCCCc1ccc(F)cc1 (centres unmarked) [Compound 117]	0.00708 ± 0.00129 µM	0.206 ± 0.137 µM	8.88 L/h/kg	18 min		
CC(Cc1ccc([N+](=O)[O-])cc1)NCCCc1ccc(F)cc1 (centres unmarked) [Compound 119]	0.00985 ± 0.00162 µM	0.13 ± 0.0256 µM			24 min	6.72 L/h/kg
CC(Cc1ccc([N+](=O)[O-])cc1)NCCCc1ccc(Cl)cc1 (centres unmarked) [Compound 125]	0.00858 ± 0.00371 µM	0.082 ± 0.0127 µM				
CC(Cc1ccc(F)cc1)NCCCc1ccc(Br)cc1 (centres unmarked) [Compound 145]	0.0221 ± 0.0065 µM	0.506 ± 0.199 µM	24.1 L/h/kg		6 min	
OCC(Cc1ccc(F)cc1)NCCCc1ccc(F)cc1 (centres unmarked) [Compound 147]	0.0301 ± 0.0142 µM	1.15 ± 0.417 µM				
FCC(Cc1ccc(F)cc1)NCCCc1ccc(Cl)cc1 (centres unmarked) [Compound 150]	0.0391 ± 0.00797 µM	2.34 ± 1.07 µM	32.4 L/h/kg		6 min	

SMILES	Ki [1]	Ki [2]	CLint scaled at 0.08 µM [3]	half-life at 0.08 µM [3]	Microsomal stability assays: Half-life [3]	Microsomal stability assays: Clearance [3]
FCC(Cc1ccc(F)cc1)NCCCc1ccc(F)cc1 (centres unmarked) [Compound 152]	0.0273 ± 0.0128 µM	5.7 ± 2.97 µM	17.9 L/h/kg	12 min		
CCOC(=O)c1ccc(CCCNC(C)Cc2ccc(F)cc2)cc1 (centres unmarked) [Compound 158]	0.0428 ± 0.00889 µM	1.41 ± 0.275 µM	7.2 L/h/kg	24 min		
CC(Cc1ccc(F)cc1)NCCCc1ccc([N+](=O)[O-])cc1 (centres unmarked) [Compound 160]	0.0143 ± 0.0022 µM	0.0671 ± 0.0147 µM	7.14 L/h/kg	24 min		
CC(Cc1ccc(C(F)(F)F)cc1)NCCCc1ccncc1 (centres unmarked) [Compound 164]	0.0533 ± 0.0065 µM	1.89 ± 0.639 µM	5 L/h/kg	36 min		
CC(Cc1ccc(-c2cncnc2)cc1)NCCCc1ccc(Cl)cc1 (centres unmarked) [Compound 170]	0.00674 ± 0.00259 µM	0.199 ± 0.0649 µM	2.05 L/h/kg	84 min		
CC(Cc1ccc(Br)cc1)NCCCc1ccncc1 (centres unmarked) [Compound 174]	0.0521 ± 0.0359 µM	0.88 ± 0.251 µM	7.56 L/h/kg	24 min		
CC(Cc1ccc(F)cc1)NCCCc1ccncc1 (centres unmarked) [Compound 176]	0.0807 ± 0.021 µM	3.77 ± 0.00204 µM	4.31 L/h/kg	42 min		
CC(Cc1ccncc1)NCCCc1ccc(O)cc1 (centres unmarked) [Compound 178]	0.124 ± 0.0294 µM	5.07 ± 0.0714 µM	5.36 L/h/kg	30 min		
CC(Cc1ccc(Br)cc1)NCCCc1ccc(I)cc1 (centres unmarked) [Compound 180]	0.0484 ± 0.0194 µM	0.601 ± 0.195 µM	17.4 L/h/kg	12 min		
CC(Cc1ccc(F)cc1)NCCCc1ccc(I)cc1 (centres unmarked) [Compound 182]	0.0527 ± 0.00635 µM	0.512 ± 0.126 µM	22.5 L/h/kg		6 min	
CC(Cc1ccc(Br)cc1)NCCCc1ccc(Cl)cc1 (centres unmarked) [Compound 184]	0.00906 ± 0.00161 µM	0.196 ± 0.0305 µM	27.1 L/h/kg		6 min	
CC(Cc1ccc(-c2cccnc2)cc1)NCCCc1ccc(F)cc1 (centres unmarked) [Compound 192]	0.0119 ± 0.00994 µM	0.675 ± 0.127 µM	4.63 L/h/kg	36 min		
CC(Cc1ccccc1)NCCCc1ccc(C(F)(F)F)cc1 (centres unmarked) [Compound 194]	0.0277 ± 0.00781 µM	0.791 ± 0.27 µM	8.28 L/h/kg	18 min		
CC(Cc1ccc(-c2cncnc2)cc1)NCCCc1ccc(F)cc1 (centres unmarked) [Compound 196]	0.00712 ± 0.00159 µM	0.402 ± 0.0722 µM	0.882 L/h/kg	192 min		
CC(Cc1ccc(Br)cc1)NCCCc1ccc(F)cc1 (centres unmarked) [Compound 200]	0.0152 ± 0.00886 µM	0.242 ± 0.076 µM	11.2 L/h/kg	18 min		
CCC(Cc1ccccc1)NCCCc1ccc(O)cc1 (centres unmarked) [Compound 207]	0.0378 ± 0.00659 µM	2.38 ± 0.517 µM	> 24 L/h/kg	< 6 min		
CC(Cc1ccc(C(F)(F)F)cc1)NCCCc1ccc(O)cc1 (centres unmarked) [Compound 209]	0.0171 ± 0.00686 µM	0.252 ± 0.109 µM				
CC(Cc1ccccc1)NCCCc1ccc(-c2cccnc2)cc1 (centres unmarked) [Compound 210]	0.0554 ± 0.00794 µM	3.12 ± 0.251 µM	23.5 L/h/kg		6 min	
CC(Cc1ccccc1)NCCCc1ccc(I)cc1 (centres unmarked) [Compound 212]	0.0222 ± 0.00221 µM	0.642 ± 0.168 µM			6 min	26.3 L/h/kg
CC(Cc1ccccc1)NCCCc1ccc(O)cc1 (centres unmarked) [Compound 223]	0.00501 ± 0.00172 µM	2.75 ± 1.08 µM				

— patent publication US11999676B2, “Vesicular monoamine transporter-2 ligands and their use in the treatment of psychostimulant abuse” (priority 2016, dated 2024)
